How the values were obtained:
Type in all cases: functional
[1] = tested on: Aspergillus niger; experiment: Antifungal activity against Aspergillus niger ATCC 16404 assessed as growth inhibition at 10 ug/mL after 72 hr by agar cup plate method; conditions: ATCC 16404, 72 h, read-out: DIZ
[2] = tested on: Aspergillus fumigatus; experiment: Antifungal activity against Aspergillus fumigatus ATCC 28212 assessed as growth inhibition at 10 ug/mL after 72 hr by agar cup plate method; conditions: ATCC 28212, 72 h, read-out: DIZ
[3] = tested on: Escherichia coli; experiment: Antibacterial activity against Escherichia coli ATCC 35218 assessed as growth inhibition at 10 ug/mL after 24 hr by agar disc diffusion method; conditions: ATCC 35218, 24 h, read-out: DIZ
[4] = tested on: Bacillus spizizenii; experiment: Antibacterial activity against Bacillus subtilis subsp. spizizenii ATCC 6633 assessed as growth inhibition at 10 ug/mL after 24 hr by agar disk diffusion method; conditions: ATCC 6633, 24 h, read-out: DIZ

| Compound | zone of inhibition at 10 µg/mL [1] [mm] | zone of inhibition at 10 µg/mL [2] [mm] | zone of inhibition at 10 µg/mL [3] [mm] | zone of inhibition at 10 µg/mL [4] [mm] |
| --- | --- | --- | --- | --- |
| CS(=O)(=O)Nc1sc2c(c1C(=O)NN1C(=O)CSC1c1cccc([N+](=O)[O-])c1)CCCC2 (stereo unspecified) | 14 | 6 | 7 | 7 |
| CS(=O)(=O)Nc1sc2c(c1C(=O)NN1C(=O)C(Cl)C1c1cccc([N+](=O)[O-])c1)CCCC2 (stereo unspecified) | 18 | 8 | 10 | 7 |
| CS(=O)(=O)Nc1sc2c(c1C(=O)NN1C(=O)C(Cl)C1c1coc3ccccc3c1=O)CCCC2 (stereo unspecified) | 14 | 7 | 8 | 6 |
| O=C(O)c1cn(C2CC2)c2cc(N3CCNCC3)c(F)cc2c1=O [CIPROFLOXACIN] |  |  | 12 | 9 |
| Clc1ccccc1C(c1ccccc1)(c1ccccc1)n1ccnc1 [CLOTRIMAZOLE] | 21 | 20 |  |  |
| CS(=O)(=O)Nc1sc2c(c1C(=O)NN1C(=O)CSC1c1coc3ccccc3c1=O)CCCC2 (stereo unspecified) | 12 | 4 | 7 | 7 |
| COc1ccc(C2C(Cl)C(=O)N2NC(=O)c2c(NS(C)(=O)=O)sc3c2CCCC3)cc1 (stereo unspecified) | 12 | 6 | 8 | 6 |
| CS(=O)(=O)Nc1sc2c(c1C(=O)NN1C(=O)C(Cl)C1c1ccc(Cl)cc1)CCCC2 (stereo unspecified) | 13 | 5 | 9 | 8 |
| CS(=O)(=O)Nc1sc2c(c1C(=O)NN1C(=O)C(Cl)C1c1ccccc1)CCCC2 (stereo unspecified) | 13 | 4 | 6 | 6 |
| CS(=O)(=O)Nc1sc2c(c1C(=O)NN1C(=O)C(Cl)C1c1c[nH]c3ccccc13)CCCC2 (stereo unspecified) | 12 | 7 | 9 | 7 |
| CS(=O)(=O)Nc1sc2c(c1C(=O)NN1C(=O)CSC1c1c[nH]c3ccccc13)CCCC2 (stereo unspecified) | 18 | 6 | 10 | 6 |
| CS(=O)(=O)Nc1sc2c(c1C(=O)NN1C(=O)C(Cl)C1c1ccc([N+](=O)[O-])cc1)CCCC2 (stereo unspecified) | 16 | 6 | 10 | 8 |
| CS(=O)(=O)Nc1sc2c(c1C(=O)NN1C(=O)CSC1c1ccccc1Cl)CCCC2 (stereo unspecified) | 20 | 6 | 11 | 6 |
| CC(=O)N1CCN(c2ccc(OCC3COC(Cn4ccnc4)(c4ccc(Cl)cc4Cl)O3)cc2)CC1 (stereo unspecified) [KETOCONAZOLE] | 25 | 10 |  |  |
| COc1ccc(C2C(Cl)C(=O)N2NC(=O)c2c(NS(C)(=O)=O)sc3c2CCCC3)cc1OC (stereo unspecified) | 21 | 9 | 8 | 7 |
| CS(=O)(=O)Nc1sc2c(c1C(=O)NN1C(=O)CSC1c1ccc([N+](=O)[O-])cc1)CCCC2 (stereo unspecified) | 15 | 8 | 10 | 8 |
| CS(=O)(=O)Nc1sc2c(c1C(=O)NN1C(=O)C(Cl)C1c1cc3ccccc3nc1Cl)CCCC2 (stereo unspecified) | 22 | 6 | 6 | 6 |
| CS(=O)(=O)Nc1sc2c(c1C(=O)NN1C(=O)CSC1c1ccccc1)CCCC2 (stereo unspecified) | 9 | 5 | 6 | 5 |
| COc1ccc(C2SCC(=O)N2NC(=O)c2c(NS(C)(=O)=O)sc3c2CCCC3)cc1 (stereo unspecified) | 14 | 6 | 11 | 5 |
| CS(=O)(=O)Nc1sc2c(c1C(=O)NN1C(=O)C(Cl)C1c1ccccc1Cl)CCCC2 (stereo unspecified) | 15 | 6 | 7 | 7 |
| CS(=O)(=O)Nc1sc2c(c1C(=O)NN1C(=O)CSC1c1ccc(Cl)cc1)CCCC2 (stereo unspecified) | 13 | 7 | 8 | 8 |
| COc1ccc(C2SCC(=O)N2NC(=O)c2c(NS(C)(=O)=O)sc3c2CCCC3)cc1OC (stereo unspecified) | 12 | 6 | 7 | 6 |
| CS(=O)(=O)Nc1sc2c(c1C(=O)NN1C(=O)CSC1c1cc3ccccc3nc1Cl)CCCC2 (stereo unspecified) | 19 | 8 | 8 | 6 |

Reference: ChEMBL document CHEMBL3045979, “Synthesis and antimicrobial activities of highly functionalised novel -lactam and thiazolidine-grafted tetrahydrobenzothiophenes” (2013)
